# According to the supplement of paper PMC10307832:
# How the values were obtained:
# Experiment in all cases: relative viability (nuclei count vs DMSO), 5 days (fraction); higher = more cells survive
# [1] = compound: O=C(O)c1ccc2c(c1)nc(Nc1cccc(Cl)c1)c1ccncc12 [Silmitasertib] + CS(=O)(=O)CCNCc1ccc(-c2ccc3ncnc(Nc4ccc(OCc5cccc(F)c5)c(Cl)c4)c3c2)o1 [Lapatinib] (partner 2 µM)
# Outline: (§1)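 Relative viability equals treated-well nuclei counts divided by vehicle-well nuclei counts. Counts came from 4× images of lung cancer cell lines grown in 1536-well plates for 5 days after pin-tool dosing on the day after seeding. Dosing used one drug alone or a fixed anchor-drug dose plus five library-drug doses (not always all listed) in √10 steps, and values are medians of duplicate plates.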
# [2] = compound: O=C(O)c1ccc2c(c1)nc(Nc1cccc(Cl)c1)c1ccncc12 [Silmitasertib] + CC(=O)Nc1cccc(-n2c(=O)n(C3CC3)c(=O)c3c(Nc4ccc(I)cc4F)n(C)c(=O)c(C)c32)c1 [Trametinib] (partner 0.02 µM)
# Outline: as §1
# [3] = compound: O=C(O)c1ccc2c(c1)nc(Nc1cccc(Cl)c1)c1ccncc12 [Silmitasertib] + CS(=O)(=O)N1CCN(Cc2cc3nc(-c4cccc5[nH]ncc45)nc(N4CCOCC4)c3s2)CC1 [Pictilisib] (partner 1 µM)
# Outline: as §1
# [4] = compound: O=C(O)c1ccc2c(c1)nc(Nc1cccc(Cl)c1)c1ccncc12 [Silmitasertib] + CC(=O)c1c(C)c2cnc(Nc3ccc(N4CCNCC4)cn3)nc2n(C2CCCC2)c1=O [Palbociclib] (partner 0.5 µM)
# Outline: as §1
# [5] = compound: O=C(O)c1ccc2c(c1)nc(Nc1cccc(Cl)c1)c1ccncc12 [Silmitasertib] + CCNC(=O)c1noc(-c2cc(C(C)C)c(O)cc2O)c1-c1ccc(CN2CCOCC2)cc1 [Luminespib] (partner 0.01 µM)
# Outline: as §1
Cell Line,relative viability ([1]; first compound 0.04 µM),relative viability ([1]; first compound 1.265 µM),relative viability ([1]; first compound 4 µM),relative viability ([2]; first compound 0.04 µM),relative viability ([2]; first compound 1.265 µM),relative viability ([2]; first compound 4 µM),relative viability ([3]; first compound 0.04 µM),relative viability ([3]; first compound 1.265 µM),relative viability ([3]; first compound 4 µM),relative viability ([4]; first compound 0.04 µM),relative viability ([4]; first compound 1.265 µM),relative viability ([4]; first compound 4 µM),relative viability ([5]; first compound 0.04 µM),relative viability ([5]; first compound 1.265 µM),relative viability ([5]; first compound 4 µM),relative viability ([1]; first compound 0.4 µM),relative viability ([3]; first compound 0.4 µM),relative viability ([2]; first compound 0.4 µM),relative viability ([4]; first compound 0.4 µM),relative viability ([5]; first compound 0.4 µM)
HCC-827,0.197,0.193,0.135,0.604,0.406,0.422,1.04,0.751,0.788,0.556,0.343,0.442,0.616,0.524,0.355,,,,,
HOP-62,1.07,0.878,0.229,0.408,0.388,0.549,0.809,0.654,0.279,0.466,0.373,0.396,0.954,1.04,0.969,,,,,
IA-LM,1.1,0.967,0.203,,,,0.346,0.233,0.149,,,,,,,0.615,0.267,,,
LC-2-ad,1.06,0.951,0.233,0.987,0.892,0.772,0.448,0.525,0.332,0.47,0.462,0.538,1.22,1.21,1.09,0.855,0.443,0.813,0.499,1.03
LCLC-97TM1,0.999,1.04,0.192,0.217,0.156,0.145,0.19,0.15,0.112,0.234,0.15,0.151,0.892,0.691,0.442,,,,,
LCLC-103H,,,,0.689,0.648,0.636,0.578,0.565,0.446,0.462,0.266,0.389,0.909,0.751,0.548,,0.702,0.71,0.45,0.707
LK-2,1.12,0.867,0.718,0.674,0.678,0.702,0.618,0.514,0.499,0.593,0.509,0.397,0.168,0.174,0.169,0.928,0.52,,,
LOU-NH91,0.747,0.548,0.516,0.786,0.722,0.731,0.574,0.464,0.388,0.519,0.579,0.553,0.355,0.264,0.248,0.649,0.507,0.771,0.522,0.301
LU99A,1.04,0.613,0.588,0.5,0.38,0.461,0.325,0.297,0.291,0.359,0.325,0.404,0.272,0.259,0.201,1.03,0.331,0.549,0.397,0.361
LXF-289,0.931,0.999,1,0.666,0.752,0.836,0.808,0.772,0.79,0.606,0.657,0.66,0.592,0.652,0.647,,,,,
NCI-H23,1.45,0.73,0.355,0.439,0.365,0.36,0.54,0.38,0.26,0.467,0.423,0.393,0.217,0.215,0.217,,,0.323,0.444,0.197
NCI-H322M,0.668,0.42,0.387,0.61,0.47,0.553,0.503,0.381,0.365,0.411,0.422,0.351,0.968,0.693,0.44,0.549,0.503,0.5,0.486,0.893
NCI-H358,0.448,0.507,0.35,0.163,0.145,0.143,0.375,0.322,0.288,0.133,0.134,0.125,0.39,0.22,0.192,0.57,0.324,0.127,0.128,
NCI-H441,,,,0.562,0.313,0.231,0.469,0.285,0.315,0.254,0.206,0.178,0.369,0.329,0.242,,,,,
NCI-H460,1.21,1.02,0.305,0.201,0.131,0.0739,0.424,0.314,0.3,0.203,0.189,0.075,0.0354,0.0278,0.0318,0.997,0.412,0.196,0.25,0.0304
NCI-H520,0.93,0.773,0.438,0.832,0.524,0.626,0.263,0.258,0.224,0.269,0.172,0.245,0.242,0.242,0.289,0.902,0.298,0.668,0.238,0.232
NCI-H522,,,,0.715,0.814,0.817,,,,1.02,0.903,1.04,1.71,0.938,1.24,,,0.68,0.801,0.859
NCI-H596,1.06,0.833,0.977,0.765,0.764,0.796,0.393,0.36,0.336,,,,0.948,0.918,1,1.04,0.384,0.684,,0.843
SW 900,,,,0.929,0.647,0.492,,,,0.538,0.507,0.492,0.188,0.157,0.178,,,0.624,0.624,0.167
